Measured values as given in PubChem BioAssay AID248 (DTP/NCI, 2004).
Values joined by “and” are separate entries in the source; they are usually repeats but may differ in a detail not shown here. Equal entries are not always repeated. Toxic doses and inconclusive results are not listed. Cut-off read from the data, not from the text of the source: active = T/C of 150% or more; inactive = T/C below 125%.

Tested on: L1210 leukemia ip in BDF1 mice, survival T/C
Assay: NCI In Vivo Anticancer Drug Screen. Data for tumor model L1210 Leukemia (intraperitoneal) in B6D2F1 (BDF1) mice
Settings: endpoint: mean survival time, higher = longer survival
Method in brief: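 Value reflects the ratio of survival in compound-treated mice to survival in vehicle-treated controls, with both groups carrying the same transplanted tumor.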

[1] = dose: 100.0 mg/kg/injection, schedule: Q01DX001 (ip), vehicle: Klucel (hydroxypropylcellulose) (HPC)
[2] = dose: 200.0 mg/kg/injection, schedule: Q01DX001 (ip), vehicle: Klucel (hydroxypropylcellulose) (HPC)
[3] = dose: 50.0 mg/kg/injection, schedule: Q01DX001 (ip), vehicle: Klucel (hydroxypropylcellulose) (HPC)
[4] = dose: 100.0 mg/kg/injection, schedule: Q01DX009 (ip), vehicle: Klucel (hydroxypropylcellulose) (HPC)
[5] = dose: 200.0 mg/kg/injection, schedule: Q01DX009 (ip), vehicle: Klucel (hydroxypropylcellulose) (HPC)
[6] = dose: 400.0 mg/kg/injection, schedule: Q01DX009 (ip), vehicle: Klucel (hydroxypropylcellulose) (HPC)
[7] = dose: 100.0 mg/kg/injection, schedule: Q04DX003 (ip), vehicle: Klucel (hydroxypropylcellulose) (HPC)
[8] = dose: 200.0 mg/kg/injection, schedule: Q04DX003 (ip), vehicle: Klucel (hydroxypropylcellulose) (HPC)
[9] = dose: 400.0 mg/kg/injection, schedule: Q04DX003 (ip), vehicle: Klucel (hydroxypropylcellulose) (HPC)
[10] = dose: 100.0 mg/kg/injection, schedule: Q01DX001 (ip), vehicle: saline
[11] = dose: 200.0 mg/kg/injection, schedule: Q01DX001 (ip), vehicle: saline
[12] = dose: 400.0 mg/kg/injection, schedule: Q01DX001 (ip), vehicle: saline

Measured: T/C

O=C1C(Cl)CCCCC1Cl (stereo not drawn)
inactive: dose: 100.0 mg/kg/injection, schedule: Q01DX009 (ip), vehicle: acetone 93 % of control | dose: 100.0 mg/kg/injection, schedule: Q04DX003 (ip), vehicle: acetone 111 % of control | dose: 200.0 mg/kg/injection, schedule: Q01DX009 (ip), vehicle: acetone 91 % of control | dose: 200.0 mg/kg/injection, schedule: Q04DX003 (ip), vehicle: acetone 111 % of control | dose: 400.0 mg/kg/injection, schedule: Q04DX003 (ip), vehicle: acetone 92 % of control

CC(=O)Nc1ccc(OCCOc2cccc(C)c2)cc1
inactive: [1] 103 % of control | [2] 100 % of control | dose: 400.0 mg/kg/injection, schedule: Q01DX001 (ip), vehicle: Klucel (hydroxypropylcellulose) (HPC) 105 % of control

CN1N=C([P+](c2ccccc2)(c2ccccc2)c2ccccc2)CC1(c1ccccc1)c1ccccc1
inactive: dose: 75.0 mg/kg/injection, schedule: Q01DX001 (ip), vehicle: saline 103 % of control | dose: 150.0 mg/kg/injection, schedule: Q01DX001 (ip), vehicle: saline 100 % of control

N/C(=N\O)c1cn(C2OC(CO)C(O)C2O)c2nc(Cl)nc(N)c12 (stereo not drawn)
inactive: [3] 109 % of control | [1] 115 % of control

O=c1[nH]c2ccncc2c(=O)n1OS(=O)(=O)c1ccccc1
inactive: dose: 75.0 mg/kg/injection, schedule: Q01DX009 (ip), vehicle: Klucel (hydroxypropylcellulose) (HPC) 92 % of control | dose: 150.0 mg/kg/injection, schedule: Q01DX009 (ip), vehicle: Klucel (hydroxypropylcellulose) (HPC) 95 % of control | dose: 300.0 mg/kg/injection, schedule: Q01DX009 (ip), vehicle: Klucel (hydroxypropylcellulose) (HPC) 94 % of control

Cc1ccc(NC(=S)N(C)C)cc1C
inactive: [4] 95 % of control | [5] 101 % of control | [6] 104 % of control

CCSc1nc(C2NC(C(=O)O)CS2)cc(=O)[nH]1 (stereo not drawn)
inactive: [3] 98 % of control | [1] 98 % of control | [2] 97 % of control

COP(=O)(NC12CC3CC(CC(C3)C1)C2)OC
inactive: [4] 103 % of control | [7] 97 % of control | [5] 100 % of control | [8] 95 % of control | [6] 101 % of control | [9] 95 % of control

CCCCCCCCCCCCSC(=O)Nc1cc([N+](=O)[O-])ccc1C
inactive: [7] 92 % of control | [8] 88 % of control | [9] 88 % of control

Nc1[nH]c(=O)nc2nc(I)[nH]c12
inactive: dose: 100.0 mg/kg/injection, schedule: Q01DX001 (ip), vehicle: carboxymethylcellulose (CMC) 97 % of control | dose: 200.0 mg/kg/injection, schedule: Q01DX001 (ip), vehicle: carboxymethylcellulose (CMC) 100 % of control | dose: 400.0 mg/kg/injection, schedule: Q01DX001 (ip), vehicle: carboxymethylcellulose (CMC) 113 % of control

c1ccc2c(C(CCN3CCOCC3)(CCN3CCOCC3)CNC3=NCCN3)cccc2c1
inactive: dose: 12.5 mg/kg/injection, schedule: Q01DX009 (ip), vehicle: saline 105 % of control | dose: 25.0 mg/kg/injection, schedule: Q01DX009 (ip), vehicle: saline with Tween-80 103 % of control | dose: 25.0 mg/kg/injection, schedule: Q01DX009 (ip), vehicle: saline 109 % of control | dose: 50.0 mg/kg/injection, schedule: Q01DX009 (ip), vehicle: saline 111 % of control

CCN(CC)CCN(C(=O)Cc1cccc2ccccc12)c1ccccc1N
inactive: dose: 19.0 mg/kg/injection, schedule: Q04DX003 (ip), vehicle: acid diluted with saline 94 % of control | dose: 38.0 mg/kg/injection, schedule: Q04DX003 (ip), vehicle: acid diluted with saline 102 % of control | dose: 75.0 mg/kg/injection, schedule: Q01DX001 (ip), vehicle: acid diluted with saline 105 % of control | dose: 75.0 mg/kg/injection, schedule: Q04DX003 (ip), vehicle: acid diluted with saline 100 % of control

C/C(=N\NC(=S)Nc1cc(I)ccc1C)c1cc([N+](=O)[O-])c(O)cc1O
inactive: dose: 12.5 mg/kg/injection, schedule: Q04DX002 (ip), vehicle: Klucel (hydroxypropylcellulose) (HPC) 102 % of control | dose: 25.0 mg/kg/injection, schedule: Q04DX002 (ip), vehicle: Klucel (hydroxypropylcellulose) (HPC) 97 % of control | dose: 50.0 mg/kg/injection, schedule: Q04DX002 (ip), vehicle: Klucel (hydroxypropylcellulose) (HPC) 105 % of control

CCC1(CC)NC(=O)N(CCO)C1=O
inactive: dose: 50.0 mg/kg/injection, schedule: Q04DX003 (ip), vehicle: saline 110 % of control | dose: 100.0 mg/kg/injection, schedule: Q04DX003 (ip), vehicle: saline 95 % of control | dose: 200.0 mg/kg/injection, schedule: Q04DX003 (ip), vehicle: saline 106 % of control | dose: 400.0 mg/kg/injection, schedule: Q04DX003 (ip), vehicle: saline 105 % of control

CC(=O)Oc1cc(C=O)cc(OC(C)=O)c1OC(C)=O
inactive: dose: 100.0 mg/kg/injection, schedule: Q01DX009 (ip), vehicle: saline with Tween-80 106 % of control | dose: 100.0 mg/kg/injection, schedule: Q04DX003 (ip), vehicle: saline with Tween-80 106 % of control | dose: 200.0 mg/kg/injection, schedule: Q01DX009 (ip), vehicle: saline with Tween-80 118 % of control | dose: 200.0 mg/kg/injection, schedule: Q04DX003 (ip), vehicle: saline with Tween-80 121 % of control | dose: 400.0 mg/kg/injection, schedule: Q01DX009 (ip), vehicle: saline with Tween-80 90 % of control | dose: 400.0 mg/kg/injection, schedule: Q04DX003 (ip), vehicle: saline with Tween-80 108 % of control

O=NO.O=N[O-].O=N[O-].[Co+3].[NH2-].[NH2-].[NH2-].[NH2-]
inactive: dose: 12.0 mg/kg/injection, schedule: Q01DX009 (ip), vehicle: Klucel (hydroxypropylcellulose) (HPC) 100 % of control | dose: 25.0 mg/kg/injection, schedule: Q01DX009 (ip), vehicle: Klucel (hydroxypropylcellulose) (HPC) 107 % of control | dose: 25.0 mg/kg/injection, schedule: Q04DX003 (ip), vehicle: Klucel (hydroxypropylcellulose) (HPC) 103 % of control | dose: 50.0 mg/kg/injection, schedule: Q01DX009 (ip), vehicle: Klucel (hydroxypropylcellulose) (HPC) 102 % of control | dose: 50.0 mg/kg/injection, schedule: Q04DX003 (ip), vehicle: Klucel (hydroxypropylcellulose) (HPC) 96 % of control | [7] 94 % of control and 110 % of control

NS(=O)(=O)c1ccc(N=Cc2cc(Cl)cc(Cl)c2O)cc1
inactive: [4] 101 % of control | [5] 106 % of control | [6] 106 % of control

O=C1CCc2cc(Br)ccc2O1
inactive: dose: 50.0 mg/kg/injection, schedule: Q01DX001 (ip), vehicle: saline 92 % of control | [10] 103 % of control | [11] 100 % of control | [12] 100 % of control

C/C=C\C=N\NC(N)=S
inactive: dose: 12.5 mg/kg/injection, schedule: Q04DX003 (ip), vehicle: saline with Tween-80 95 % of control | dose: 25.0 mg/kg/injection, schedule: Q04DX003 (ip), vehicle: saline with Tween-80 103 % of control | dose: 50.0 mg/kg/injection, schedule: Q04DX003 (ip), vehicle: saline with Tween-80 95 % of control

CC(=O)Nc1ccc(/C=N/NC(=S)Nc2cccc3cccnc23)cc1
inactive: [10] 92 % of control | [11] 97 % of control | [12] 97 % of control
